From ChEMBL document CHEMBL1201862, “PubChem BioAssay data set” (2004)
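1) Cells in 96-well plates. 2) Compound, 48 h, 5 concentrations. 3) Linear interpolation between surrounding doses. 4) Unreached endpoint = highest concentration. Here, GI50 denotes the concentration required for 50% inhibition of growth.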 The source made the active and inactive calls. Rule as the data show it: active = GI50 up to about 1.1 µM and inactive = higher.

Assays:
Assay in all cases: NCI-60 cell line screen, 48 h
T47D = tested on: T47D
SR = tested on: SR
NCI-H522 = tested on: NCI-H522
COLO 205 = tested on: COLO 205
ACHN = tested on: ACHN
DU-145 = tested on: DU-145
SK-OV-3 = tested on: SK-OV-3
NCI-H23 = tested on: NCI-H23
NCI-H226 = tested on: NCI-H226
LOX IMVI = tested on: LOX IMVI
SK-MEL-28 = tested on: SK-MEL-28
NCI/ADR-RES = tested on: NCI/ADR-RES
NCI-H460 = tested on: NCI-H460
SK-MEL-5 = tested on: SK-MEL-5
TK-10 = tested on: TK-10
OVCAR-4 = tested on: OVCAR-4
PC-3 = tested on: PC-3
MDA-MB-231 = tested on: MDA-MB-231
Malme-3M = tested on: Malme-3M
HT-29 = tested on: HT-29
OVCAR-8 = tested on: OVCAR-8
HCC 2998 = tested on: HCC 2998
SF-539 = tested on: SF-539
RXF 393 = tested on: RXF 393
OVCAR-3 = tested on: OVCAR-3
RPMI-8226 = tested on: RPMI-8226
SF-268 = tested on: SF-268
HCT-116 = tested on: HCT-116
Hs-578T = tested on: Hs-578T
HCT-15 = tested on: HCT-15
HOP-92 = tested on: HOP-92
MDA-N = tested on: MDA-N
SNB-19 = tested on: SNB-19
SF-295 = tested on: SF-295
KM12 = tested on: KM12
MOLT-4 = tested on: MOLT-4
HOP-62 = tested on: HOP-62
MDA-MB-435 = tested on: MDA-MB-435
CCRF-CEM = tested on: CCRF-CEM
CAKI-1 = tested on: CAKI-1
SW-620 = tested on: SW-620
M14 = tested on: M14
SN12C = tested on: SN12C
IGROV-1 = tested on: IGROV-1
MCF7 = tested on: MCF7
OVCAR-5 = tested on: OVCAR-5
UACC-62 = tested on: UACC-62
K562 = tested on: K562
HL-60 = tested on: HL-60
UACC-257 = tested on: UACC-257
EKVX = tested on: EKVX
U-251 = tested on: U-251
SK-MEL-2 = tested on: SK-MEL-2
A549 = tested on: A549
SNB-75 = tested on: SNB-75
786-0 = tested on: 786-0
A498 = tested on: A498
UO-31 = tested on: UO-31

SMILES: Cc1coc2c1C[C@@]1(C)[C@H](CCC[C@@H]1C)[C@H]2O
- GI50 (T47D): 19.9 µM (inactive)
- GI50 (SR): 14.6 µM (inactive)
- GI50 (NCI-H522): 22.4 µM (inactive)
- GI50 (COLO 205): 41.6 µM (inactive)
- GI50 (ACHN): 24.7 µM (inactive)
- GI50 (DU-145): 11.9 µM (inactive)
- GI50 (SK-OV-3): > 100 µM (inactive)
- GI50 (NCI-H23): 36.8 µM (inactive)
- GI50 (NCI-H226): 15.5 µM (inactive)
- GI50 (LOX IMVI): 56.4 µM (inactive)
- GI50 (SK-MEL-28): 29.5 µM (inactive)
- GI50 (NCI/ADR-RES): 24.3 µM (inactive)
- GI50 (NCI-H460): > 100 µM (inactive)
- GI50 (SK-MEL-5): 15.1 µM (inactive)
- GI50 (TK-10): 54 µM (inactive)
- GI50 (OVCAR-4): 28.1 µM (inactive)
- GI50 (PC-3): 19.1 µM (inactive)
- GI50 (MDA-MB-231): 20.7 µM (inactive)
- GI50 (Malme-3M): 18.8 µM (inactive)
- GI50 (HT-29): 33.3 µM (inactive)
- GI50 (OVCAR-8): 35.4 µM (inactive)
- GI50 (HCC 2998): 11.4 µM (inactive)
- GI50 (SF-539): 25.1 µM (inactive)
- GI50 (RXF 393): 20.8 µM (inactive)
- GI50 (OVCAR-3): 22.6 µM (inactive)
- GI50 (RPMI-8226): 18.1 µM (inactive)
- GI50 (SF-268): 16.9 µM (inactive)
- GI50 (HCT-116): 29.6 µM (inactive)
- GI50 (Hs-578T): 71.1 µM (inactive)
- GI50 (HCT-15): 36.2 µM
- GI50 (HOP-92): 25.9 µM (inactive)
- GI50 (MDA-N): 49.9 µM (inactive)
- GI50 (SNB-19): > 100 µM (inactive)
- GI50 (SF-295): 30.9 µM (inactive)
- GI50 (KM12): > 100 µM (inactive)
- GI50 (MOLT-4): 18 µM (inactive)
- GI50 (HOP-62): 29.4 µM (inactive)
- GI50 (MDA-MB-435): 30.1 µM (inactive)
- GI50 (CCRF-CEM): 28.4 µM (inactive)
- GI50 (CAKI-1): 44.5 µM (inactive)
- GI50 (SW-620): 37.7 µM (inactive)
- GI50 (M14): 60.4 µM (inactive)
- GI50 (SN12C): 15.6 µM (inactive)
- GI50 (IGROV-1): 19.8 µM (inactive)
- GI50 (MCF7): 52.7 µM (inactive)
- GI50 (OVCAR-5): 37.2 µM (inactive)
- GI50 (UACC-62): 69.5 µM (inactive)
- GI50 (K562): 28.4 µM (inactive)
- GI50 (HL-60): 16.4 µM (inactive)
- GI50 (UACC-257): 31.8 µM (inactive)
- GI50 (EKVX): 58.7 µM (inactive)
- GI50 (U-251): 42.4 µM (inactive)

SMILES: Cc1ccc(S(=O)(=O)N/N=C2\CC3C4CCC3C2C4)cc1 (centres undefined)
- GI50 (T47D): > 100 µM (inactive)
- GI50 (SK-MEL-2): > 100 µM (inactive)
- GI50 (SR): > 100 µM (inactive)
- GI50 (NCI-H522): > 100 µM (inactive)
- GI50 (COLO 205): > 100 µM (inactive)
- GI50 (ACHN): > 100 µM (inactive)
- GI50 (DU-145): > 100 µM (inactive)
- GI50 (SK-OV-3): > 100 µM (inactive)
- GI50 (A549): > 100 µM (inactive)
- GI50 (SNB-75): 0.0859 µM (active)
- GI50 (NCI-H23): > 100 µM (inactive)
- GI50 (NCI-H226): > 100 µM (inactive)
- GI50 (LOX IMVI): > 100 µM (inactive)
- GI50 (SK-MEL-28): > 100 µM (inactive)
- GI50 (NCI/ADR-RES): > 100 µM (inactive)
- GI50 (NCI-H460): > 100 µM (inactive)
- GI50 (SK-MEL-5): > 100 µM (inactive)
- GI50 (TK-10): > 100 µM (inactive)
- GI50 (OVCAR-4): > 100 µM (inactive)
- GI50 (PC-3): > 100 µM (inactive)
- GI50 (MDA-MB-231): > 100 µM (inactive)
- GI50 (Malme-3M): > 100 µM (inactive)
- GI50 (HT-29): > 100 µM (inactive)
- GI50 (OVCAR-8): > 100 µM (inactive)
- GI50 (HCC 2998): > 100 µM (inactive)
- GI50 (SF-539): > 100 µM (inactive)
- GI50 (786-0): > 100 µM (inactive)
- GI50 (RXF 393): > 100 µM (inactive)
- GI50 (OVCAR-3): > 100 µM (inactive)
- GI50 (SF-268): > 100 µM (inactive)
- GI50 (HCT-116): > 100 µM (inactive)
- GI50 (Hs-578T): > 100 µM (inactive)
- GI50 (HCT-15): > 100 µM
- GI50 (HOP-92): > 100 µM (inactive)
- GI50 (MDA-N): > 100 µM (inactive)
- GI50 (SNB-19): > 100 µM (inactive)
- GI50 (SF-295): > 100 µM (inactive)
- GI50 (KM12): > 100 µM (inactive)
- GI50 (MOLT-4): > 100 µM (inactive)
- GI50 (HOP-62): > 100 µM (inactive)
- GI50 (MDA-MB-435): > 100 µM (inactive)
- GI50 (CCRF-CEM): > 100 µM (inactive)
- GI50 (CAKI-1): > 100 µM (inactive)
- GI50 (SW-620): > 100 µM (inactive)
- GI50 (M14): > 100 µM (inactive)
- GI50 (SN12C): > 100 µM (inactive)
- GI50 (IGROV-1): > 100 µM (inactive)
- GI50 (MCF7): > 100 µM (inactive)
- GI50 (A498): > 100 µM (inactive)
- GI50 (OVCAR-5): > 100 µM (inactive)
- GI50 (UO-31): > 100 µM (inactive)
- GI50 (UACC-62): > 100 µM (inactive)
- GI50 (K562): > 100 µM (inactive)
- GI50 (HL-60): > 100 µM (inactive)
- GI50 (UACC-257): > 100 µM (inactive)
- GI50 (EKVX): > 100 µM (inactive)
- GI50 (U-251): > 100 µM (inactive)
